Measured values as given in the supplement of paper PMC11451515.

Test system: SEM cells
Test: cell viability relative to DMSO control; higher = less cytotoxic
Details: 48 h
Outline: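 Viability is a per-plate percentage relative to DMSO wells, with cell-free wells as background. CellTiter-Glo One luminescence was read after 48 h at 37°C on 1536-well plates (5 μl) of NOMO1 or SEM (500 cells/well) or P12-Ichikawa (1000 cells/well) leukemia cells. The cells had been adapted for at least four passages in each medium and pin-dosed with library compounds in DMSO from 47 μM to 0.79 nM in 11 threefold steps.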

[1] = HPLM + 10% dialyzed FBS, 0.000781 µM
[2] = HPLM + 10% dialyzed FBS, 0.00234 µM
[3] = HPLM + 10% dialyzed FBS, 0.00702 µM
[4] = HPLM + 10% dialyzed FBS, 0.0211 µM
[5] = HPLM + 10% dialyzed FBS, 0.0632 µM
[6] = HPLM + 10% dialyzed FBS, 0.19 µM
[7] = HPLM + 10% dialyzed FBS, 0.569 µM
[8] = HPLM + 10% dialyzed FBS, 1.71 µM
[9] = HPLM + 10% dialyzed FBS, 5.12 µM
[10] = HPLM + 10% dialyzed FBS, 15.4 µM
[11] = HPLM + 10% dialyzed FBS, 46.1 µM
[12] = RPMI 5 mM glucose + 10% FBS, 0.000781 µM
[13] = RPMI 5 mM glucose + 10% FBS, 0.00234 µM
[14] = RPMI 5 mM glucose + 10% FBS, 0.00702 µM
[15] = RPMI 5 mM glucose + 10% FBS, 0.0211 µM
[16] = RPMI 5 mM glucose + 10% FBS, 0.0632 µM
[17] = RPMI 5 mM glucose + 10% FBS, 0.19 µM
[18] = RPMI 5 mM glucose + 10% FBS, 0.569 µM
[19] = RPMI 5 mM glucose + 10% FBS, 1.71 µM
[20] = RPMI 5 mM glucose + 10% FBS, 5.12 µM
[21] = RPMI 5 mM glucose + 10% FBS, 15.4 µM
[22] = RPMI 5 mM glucose + 10% FBS, 46.1 µM
[23] = RPMI 5 mM glucose + 10% dialyzed FBS, 0.000781 µM
[24] = RPMI 5 mM glucose + 10% dialyzed FBS, 0.00234 µM
[25] = RPMI 5 mM glucose + 10% dialyzed FBS, 0.00702 µM
[26] = RPMI 5 mM glucose + 10% dialyzed FBS, 0.0211 µM
[27] = RPMI 5 mM glucose + 10% dialyzed FBS, 0.0632 µM
[28] = RPMI 5 mM glucose + 10% dialyzed FBS, 0.19 µM
[29] = RPMI 5 mM glucose + 10% dialyzed FBS, 0.569 µM
[30] = RPMI 5 mM glucose + 10% dialyzed FBS, 1.71 µM
[31] = RPMI 5 mM glucose + 10% dialyzed FBS, 5.12 µM
[32] = RPMI 5 mM glucose + 10% dialyzed FBS, 15.4 µM
[33] = RPMI 5 mM glucose + 10% dialyzed FBS, 46.1 µM

Row | SMILES | cell viability [1] [%] | cell viability [2] [%] | cell viability [3] [%] | cell viability [4] [%] | cell viability [5] [%] | cell viability [6] [%] | cell viability [7] [%] | cell viability [8] [%] | cell viability [9] [%] | cell viability [10] [%] | cell viability [11] [%] | cell viability [12] [%] | cell viability [13] [%] | cell viability [14] [%] | cell viability [15] [%] | cell viability [16] [%] | cell viability [17] [%] | cell viability [18] [%] | cell viability [19] [%] | cell viability [20] [%] | cell viability [21] [%] | cell viability [22] [%] | cell viability [23] [%] | cell viability [24] [%] | cell viability [25] [%] | cell viability [26] [%] | cell viability [27] [%] | cell viability [28] [%] | cell viability [29] [%] | cell viability [30] [%] | cell viability [31] [%] | cell viability [32] [%] | cell viability [33] [%]
1 | COc1ccc(-c2oc3cc(OC)ccc3c2C(=O)c2ccc(C#N)cc2)cc1 | 114 | 117 | 120 | 121 | 128 | 136 | 129 | 141 | 131 | 142 | 125 | 93.2 | 109 | 133 | 127 | 130 | 140 | 139 | 148 | 136 | 123 | 124 | 113 | 123 | 144 | 124 | 150 | 175 | 162 | 174 | 147 | 136 | 136
2 | Cc1cnc(Nc2ccc(CN3CCOCC3)cc2)nc1Nc1cccc([S+](=O)([O-])NC(C)(C)C)c1 | 65 | 83.2 | 77.8 | 72.9 | 83.4 | 39.3 | 58 | 23.1 | 5.99 | 2.23 | 1.78 | 87.5 | 86.9 | 102 | 87.8 | 83.5 | 44 | 59.3 | 19.4 | 5.03 | 2.53 | 2.58 | 69.5 | 81.9 | 82.4 | 86 | 84.2 | 37.7 | 20.7 | 16.5 | 6.18 | 2.42 | 2.01
3 | COc1cc2ncnc(Nc3cccc(Cl)c3)c2cc1OC | 99.7 | 112 | 93.1 | 105 | 77.8 | 62.7 | 53.5 | 30.7 | 32.4 | 31.3 | 4.45 | 121 | 118 | 113 | 119 | 76.8 | 50.2 | 50.7 | 19.1 | 7.71 | 6.3 | 4.71 | 98.5 | 111 | 93 | 102 | 77.7 | 58.8 | 59.1 | 22.8 | 19.3 | 9.12 | 3.77
4 | CC(C)(C)OC(=O)Nc1ccc(-c2cc(C(=O)NCCCCCCC(=O)NO)no2)cc1 | 87.5 | 87.7 | 95.7 | 102 | 77.4 | 99.6 | 102 | 72.4 | 33.5 | 4.09 | 4.02 | 94.9 | 88.1 | 102 | 101 | 74.7 | 101 | 107 | 44.2 | 30.2 | 4.09 | 4.76 | 84.3 | 83.2 | 79.8 | 88.9 | 79.7 | 90.7 | 87.7 | 28.1 | 20.1 | 3.52 | 3.79
5 | NC[C@H]1O[C@H](O[C@H]2[C@H](O)[C@@H](O[C@H]3O[C@H](CO)[C@@H](O)[C@H](N)[C@H]3O)[C@H](N)C[C@@H]2N)[C@H](N)C[C@@H]1O | 88.9 | 95.3 | 98.6 | 108 | 104 | 92.9 | 107 | 96.9 | 101 | 101 | 109 | 93.7 | 97.1 | 106 | 98.6 | 119 | 109 | 112 | 95.6 | 89 | 100 | 111 | 105 | 105 | 118 | 116 | 107 | 108 | 110 | 104 | 112 | 103 | 111
6 | O=C(NCc1ccccc1)c1csc(Nc2ccncn2)n1 | 84 | 77.5 | 97 | 106 | 108 | 75.7 | 74.4 | 50.4 | 17.2 | 4.02 | 1.49 | 97.4 | 82.9 | 99.5 | 96.3 | 108 | 55.3 | 67.8 | 29.2 | 9.72 | 2.63 | 1.31 | 89.6 | 69.1 | 94.8 | 103 | 108 | 81.5 | 85.9 | 43.7 | 17.4 | 2.76 | 1.35
7 | Cn1cnc([N+](=O)[O-])c1Sc1ncnc2nc[nH]c12 | 83.9 | 90.7 | 99.3 | 88 | 101 | 100 | 95.7 | 83 | 103 | 24.4 | 20.8 | 87.3 | 86.8 | 93.4 | 108 | 88.2 | 92.1 | 100 | 43.5 | 23.8 | 24.9 | 15.4 | 90.3 | 82.8 | 84.6 | 71.8 | 88.9 | 89.1 | 77 | 32.1 | 28.7 | 20.7 | 14.3
